The results in this text go back to ChEMBL document CHEMBL1130445, “The synthesis of CD-ring modified 1,25-dihydroxy vitamin D analogues: Six-membered D-ring analogues I” (1997).

One experiment concerns MG-63. In words: Biological evaluation in vitro on MG-63 cell line. Format: functional, Homo sapiens. On the set-up: reference not given here.
In the next experiment the test system is Keratinocyte. Kind of experiment: Biological evaluation in vitro on keratinocytes. Format: functional. Also on record: reference not given here.
For experiment [1], the target named is T1, Vitamin D3 receptor (Sus scrofa) (UniProt A3RGC1).
T1 sequence (whole entry): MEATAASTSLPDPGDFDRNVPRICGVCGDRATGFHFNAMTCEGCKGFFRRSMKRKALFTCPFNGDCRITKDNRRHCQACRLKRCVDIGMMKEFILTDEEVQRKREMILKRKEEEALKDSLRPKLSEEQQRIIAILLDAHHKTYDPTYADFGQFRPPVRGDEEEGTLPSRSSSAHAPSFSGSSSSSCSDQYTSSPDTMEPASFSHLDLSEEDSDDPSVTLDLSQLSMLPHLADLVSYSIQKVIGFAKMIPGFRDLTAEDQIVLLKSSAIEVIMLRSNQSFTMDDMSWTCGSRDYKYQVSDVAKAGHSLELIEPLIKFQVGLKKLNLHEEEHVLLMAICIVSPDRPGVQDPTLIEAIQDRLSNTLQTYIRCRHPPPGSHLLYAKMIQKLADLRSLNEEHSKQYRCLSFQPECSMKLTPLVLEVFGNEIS
In words: Inhibition of 1-alpha,25(OH)2 D3 binding to pig intestinal mucosa Vitamin D3 receptor (VDR). It counts as tissue-based.

Another experiment deals with MCF7. In words: Biological evaluation in vitro on MCF-7 cell line. Also on record: reference not given here. Format: functional, Homo sapiens.
The test system of the next experiment is Mus musculus. Kind of experiment: The in vivo effect was tested in vitamin D-deplete normal NMRI mice by measuring calcium levels in serum. It counts as functional. Also on record: reference not given here.
Another experiment relates to HL-60. Kind of experiment: Biological evaluation in vitro on HL-60 cell line. It counts as functional, Homo sapiens. Also on record: reference not given here.

Bounds are passed on as bounds.

Consider `C=C1C(=CC=C[C@H]2CCC[C@H]([C@H](C)CCCC(C)(C)O)C2(C)C)C[C@@H](O)C[C@@H]1O`, for which the Biological evaluation with MG-63 is on record as 3; with Keratinocyte it was 30; with MCF7, 1; with Mus musculus it was below 0.1; with HL-60, 2. For the same molecule, the Relative affinity in experiment [1] worked out at 1.
As for `C=C1C(=CC=C[C@@H]2CCC[C@H]([C@H](C)CCCC(C)(C)O)C2(C)C)C[C@@H](O)C[C@@H]1O`, the Biological evaluation stood at 300 in the experiment on MG-63; 300 in the experiment on Keratinocyte; 300 in the experiment on MCF7; 4 with Mus musculus; 90 in the experiment with HL-60. Moreover, the Relative affinity in experiment [1] was 125.
Turning to `C=C1C(=CC=C[C@@H]2CCC[C@H]([C@@H](C)CCCC(C)(C)O)C2(C)C)C[C@@H](O)C[C@@H]1O`, the Biological evaluation in the experiment with MG-63 was determined as 1; in the experiment on Keratinocyte it was 8; in the experiment with MCF7, 0; in the experiment with Mus musculus, 0.1; in the experiment with HL-60, 1. In experiment [1], this molecule returned a Relative affinity of 0.5.
For the molecule `C=C1C(=CC=C[C@H]2CCC[C@H]([C@H](C)CCCCC(O)(CC)CC)C2(C)C)C[C@@H](O)C[C@@H]1O`, the Biological evaluation is 800 in the experiment with MG-63; 1500 in the experiment on Keratinocyte; 3000 in the experiment with MCF7; 20 in the experiment on Mus musculus; 600 in the experiment on HL-60. This molecule gave a Relative affinity in experiment [1] of 60.
For the molecule `C=C1C(=CC=C[C@H]2CCC[C@H]([C@@H](C)CCCC(C)(C)O)C2(C)C)C[C@@H](O)C[C@@H]1O`, the Biological evaluation with MG-63 is given as 1; in the experiment with Keratinocyte it was 8; in the experiment on MCF7 it was 0; in the experiment with Mus musculus, below 0.1; in the experiment with HL-60, 1. Further, the Relative affinity in experiment [1] came out at 0.9.
